Measurements reported in PubChem BioAssay (NCI).
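Exposure lasted 48 hours, with cells grown in 96-well plates and compounds tested at five concentrations. The concentration for full growth arrest is given as TGI.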

Legend:
Assay in all cases: NCI-60 cell line screen, 48 h
HCT-15 colon = system: HCT-15 colon
SF-268 CNS = system: SF-268 CNS
EKVX NSCLC = system: EKVX NSCLC
UO-31 renal = system: UO-31 renal
SW-620 colon = system: SW-620 colon
HOP-92 NSCLC = system: HOP-92 NSCLC
HS 578T breast = system: HS 578T breast
T-47D breast = system: T-47D breast
U251 CNS = system: U251 CNS
KM12 colon = system: KM12 colon
SNB-75 CNS = system: SNB-75 CNS
A549 NSCLC = system: A549 NSCLC
MDA-N = system: MDA-N
NCI-H460 lung = system: NCI-H460 lung
MDA-MB-231 breast = system: MDA-MB-231 breast
NCI-H226 lung = system: NCI-H226 lung
OVCAR-3 ovarian = system: OVCAR-3 ovarian
COLO 205 colon = system: COLO 205 colon
TK-10 renal = system: TK-10 renal
HT29 colon = system: HT29 colon
IGROV1 ovarian = system: IGROV1 ovarian
SF-539 CNS = system: SF-539 CNS
DU-145 prostate = system: DU-145 prostate
CCRF-CEM leukemia = system: CCRF-CEM leukemia
HCT-116 colon = system: HCT-116 colon
RPMI-8226 leukemia = system: RPMI-8226 leukemia
BT-549 breast = system: BT-549 breast
SF-295 CNS = system: SF-295 CNS
HOP-62 NSCLC = system: HOP-62 NSCLC
PC-3 prostate = system: PC-3 prostate
HCC-2998 colon = system: HCC-2998 colon
NCI/ADR-RES ovarian = system: NCI/ADR-RES ovarian
CAKI-1 renal = system: CAKI-1 renal
UACC-62 melanoma = system: UACC-62 melanoma
MDA-MB-435 = system: MDA-MB-435
NCI-H522 lung = system: NCI-H522 lung
NCI-H23 lung = system: NCI-H23 lung
SN12C renal = system: SN12C renal
HL-60(TB) leukemia = system: HL-60(TB) leukemia
OVCAR-8 ovarian = system: OVCAR-8 ovarian
M14 melanoma = system: M14 melanoma
SK-MEL-5 melanoma = system: SK-MEL-5 melanoma
A498 renal = system: A498 renal
SK-MEL-28 melanoma = system: SK-MEL-28 melanoma
MCF7 breast = system: MCF7 breast
SK-MEL-2 melanoma = system: SK-MEL-2 melanoma
LOX IMVI melanoma = system: LOX IMVI melanoma
SK-OV-3 ovarian = system: SK-OV-3 ovarian
OVCAR-5 ovarian = system: OVCAR-5 ovarian
786-0 renal = system: 786-0 renal
UACC-257 melanoma = system: UACC-257 melanoma
ACHN renal = system: ACHN renal
MALME-3M melanoma = system: MALME-3M melanoma
OVCAR-4 ovarian = system: OVCAR-4 ovarian
SNB-19 CNS = system: SNB-19 CNS
SR leukemia = system: SR leukemia
RXF 393 renal = system: RXF 393 renal
K-562 leukemia = system: K-562 leukemia
MOLT-4 leukemia = system: MOLT-4 leukemia

Molecule `CSc1nc(SC)c2ncn(C3CC(Oc4ccc(C)cc4)C(COc4ccc(C)cc4)O3)c2n1` (stereo not drawn) has a TGI (HCT-15 colon) greater than 100 µM, a TGI (SF-268 CNS) greater than 100 µM and a TGI (EKVX NSCLC) greater than 100 µM. The TGI (UO-31 renal) was 7.61 µM, the TGI (SW-620 colon) was greater than 100 µM and the TGI (HOP-92 NSCLC) was greater than 100 µM. It also gave a TGI (HS 578T breast) greater than 100 µM, a TGI (T-47D breast) greater than 100 µM and a TGI (U251 CNS) greater than 100 µM. It also gave a TGI (KM12 colon) greater than 100 µM, a TGI (SNB-75 CNS) greater than 100 µM and a TGI (A549 NSCLC) greater than 100 µM. It also gave a TGI (MDA-N) greater than 100 µM, a TGI (NCI-H460 lung) greater than 100 µM and a TGI (MDA-MB-231 breast) greater than 100 µM. It also gave a TGI (NCI-H226 lung) greater than 100 µM, a TGI (OVCAR-3 ovarian) greater than 100 µM and a TGI (COLO 205 colon) greater than 100 µM. It also gave a TGI (TK-10 renal) greater than 100 µM, a TGI (HT29 colon) greater than 100 µM and a TGI (IGROV1 ovarian) greater than 100 µM. It also gave a TGI (SF-539 CNS) greater than 100 µM, a TGI (DU-145 prostate) greater than 100 µM and a TGI (CCRF-CEM leukemia) greater than 100 µM. It also gave a TGI (HCT-116 colon) greater than 100 µM, a TGI (RPMI-8226 leukemia) greater than 100 µM and a TGI (BT-549 breast) greater than 100 µM. For the same molecule, the TGI (SF-295 CNS) was greater than 100 µM, the TGI (HOP-62 NSCLC) was greater than 100 µM and the TGI (PC-3 prostate) was greater than 100 µM. The TGI (HCC-2998 colon) was greater than 100 µM, the TGI (NCI/ADR-RES ovarian) was greater than 100 µM and the TGI (CAKI-1 renal) was greater than 100 µM. It also gave a TGI (UACC-62 melanoma) greater than 100 µM, a TGI (MDA-MB-435) greater than 100 µM and a TGI (NCI-H522 lung) greater than 100 µM. It also gave a TGI (NCI-H23 lung) greater than 100 µM, a TGI (SN12C renal) greater than 100 µM and a TGI (HL-60(TB) leukemia) greater than 100 µM. For the same molecule, the TGI (OVCAR-8 ovarian) was greater than 100 µM, the TGI (M14 melanoma) was greater than 100 µM and the TGI (SK-MEL-5 melanoma) was greater than 100 µM. For the same molecule, the TGI (A498 renal) was greater than 100 µM, the TGI (SK-MEL-28 melanoma) was greater than 100 µM and the TGI (MCF7 breast) was greater than 100 µM. The TGI (SK-MEL-2 melanoma) was greater than 100 µM, the TGI (LOX IMVI melanoma) was greater than 100 µM and the TGI (SK-OV-3 ovarian) was greater than 100 µM. It also gave a TGI (OVCAR-5 ovarian) greater than 100 µM, a TGI (786-0 renal) greater than 100 µM and a TGI (UACC-257 melanoma) greater than 100 µM. The TGI (ACHN renal) was greater than 100 µM, the TGI (MALME-3M melanoma) was greater than 100 µM and the TGI (OVCAR-4 ovarian) was greater than 100 µM. It also gave a TGI (SNB-19 CNS) greater than 100 µM.
`Cc1ccc2[nH]c3c(c2c1)C1CCC(C(C)(C)C)CC1C1C(=O)N(c2ccc4c(c2)OCO4)C(=O)C31` (stereo not drawn) was tested, and the TGI (HCT-15 colon) was 16.5 µM, the TGI (SR leukemia) was 3.73 µM and the TGI (SF-268 CNS) was 5.04 µM. For the same molecule, the TGI (EKVX NSCLC) was 10.1 µM, the TGI (RXF 393 renal) was 4.11 µM and the TGI (UO-31 renal) was 7.28 µM. The TGI (SW-620 colon) was 7.95 µM, the TGI (HOP-92 NSCLC) was 6.22 µM and the TGI (HS 578T breast) was 3.53 µM. It also gave a TGI (T-47D breast) of 3.94 µM, a TGI (U251 CNS) of 4.77 µM and a TGI (KM12 colon) of 19 µM. It also gave a TGI (A549 NSCLC) of 6.38 µM, a TGI (MDA-N) of 17.6 µM and a TGI (NCI-H460 lung) of 3.27 µM. It also gave a TGI (K-562 leukemia) of 9.62 µM, a TGI (MDA-MB-231 breast) of 5.11 µM and a TGI (NCI-H226 lung) of 8.58 µM. The TGI (OVCAR-3 ovarian) was 3.08 µM, the TGI (COLO 205 colon) was 12.5 µM and the TGI (TK-10 renal) was 4.32 µM. For the same molecule, the TGI (HT29 colon) was 16.2 µM, the TGI (IGROV1 ovarian) was 6.68 µM and the TGI (SF-539 CNS) was 2.74 µM. For the same molecule, the TGI (DU-145 prostate) was 9.88 µM, the TGI (CCRF-CEM leukemia) was 3.81 µM and the TGI (HCT-116 colon) was 6.36 µM. It also gave a TGI (RPMI-8226 leukemia) of 14.7 µM, a TGI (BT-549 breast) of 20.6 µM and a TGI (SF-295 CNS) of 9.85 µM. The TGI (HOP-62 NSCLC) was 4.24 µM, the TGI (PC-3 prostate) was 9.17 µM and the TGI (HCC-2998 colon) was 5.84 µM. For the same molecule, the TGI (NCI/ADR-RES ovarian) was 10.2 µM, the TGI (CAKI-1 renal) was 5.54 µM and the TGI (UACC-62 melanoma) was 22.9 µM. It also gave a TGI (MDA-MB-435) of 20.5 µM, a TGI (NCI-H522 lung) of 7.18 µM and a TGI (NCI-H23 lung) of 18.3 µM. It also gave a TGI (SN12C renal) of 4.96 µM, a TGI (HL-60(TB) leukemia) of 11.9 µM and a TGI (OVCAR-8 ovarian) of 4.28 µM. It also gave a TGI (M14 melanoma) of 17.2 µM, a TGI (SK-MEL-5 melanoma) of 22.9 µM and a TGI (A498 renal) of 3.48 µM. For the same molecule, the TGI (SK-MEL-28 melanoma) was 17.9 µM, the TGI (MCF7 breast) was 12.4 µM and the TGI (SK-MEL-2 melanoma) was 19.3 µM. The TGI (LOX IMVI melanoma) was 6.25 µM, the TGI (SK-OV-3 ovarian) was 6.86 µM and the TGI (MOLT-4 leukemia) was 4.25 µM. The TGI (OVCAR-5 ovarian) was 13.6 µM, the TGI (786-0 renal) was 3 µM and the TGI (UACC-257 melanoma) was 23.7 µM. For the same molecule, the TGI (ACHN renal) was 3.63 µM, the TGI (MALME-3M melanoma) was 6.14 µM and the TGI (OVCAR-4 ovarian) was 3.62 µM. It also gave a TGI (SNB-19 CNS) of 7.97 µM.
